Experimental data: US11173156B2, “Solid forms of a kynurenine-3-monooxygenase inhibitor” (CHDI Foundation, Inc., priority 2019, dated 2021)
Read-outs that look alike come from different tables or passages of the source.

What was measured:
Type in all cases: physicochemical
[1] = Approximate aqueous solubility of salts/co-crystals (visual, solvent addition method); conditions: water; for solubility: estimated visually, solvent addition method
Experimental: A weighed sample was treated with aliquots of the test solvent at room temperature. The mixture was sonicated between additions to facilitate dissolution. Complete dissolution of the test material was determined by visual inspection. Solubility was estimated based on the total solvent used to provide complete dissolution. Some samples were then heated and observed visually for complete dissolution. The actual solubility may be greater than the value calculated because of the use of solvent aliquots that were too large or due to a slow rate of dissolution. […] If complete dissolution was achieved as a result of only one aliquot addition, the solubility is expressed as “greater than.”

[2] = Dynamic vapor sorption/desorption (DVS); conditions: for material recovered from the DVS analysis compared with starting material by XRPD: after DVS; for DVS weight loss: from about 95% to about 5% RH
Experimental: Moisture sorption/desorption data were collected on a VTI SGA-100 Vapor Sorption Analyzer. NaCl and PVP were used as calibration standards. Samples were not dried prior to analysis. Sorption and desorption data were collected over a range from 5% to 95% RH at 10% RH increments under a nitrogen purge. The equilibrium criterion used for analysis was less than 0.0100% weight change in 5 minutes with a maximum equilibration time of 3 hours. Data were not corrected for the initial moisture content of the samples.

[3] = Deliquescence of salts/co-crystals during exposure to 75% RH; conditions: ambient temperature, 3 day exposure, visual
Experimental: The salts identified from the salt/co-crystal screen of Compound I (see section 4 above) were assessed visually for deliquescence during exposure to 75% RH at ambient temperature (Table 5). […] The materials from these experiments were recovered and re-analyzed by XRPD to determine if changes in solid form occurred.

[4] = Stability at elevated temperatures (XRPD, HPLC)
Experimental: The stability of Compound I sodium Patterns A, C, and D and Form B, at about 60° C. was evaluated. These forms were weighed into vials covered with a Kimwipe tissue and stored in an oven at 60° C. and ambient pressure. After three days and ten days of exposure, the solids were analyzed by XRPD to check for form conversion. […].

[5] = Slurry experiments (form stability)
Experimental: Solutions were prepared by adding enough solids to a given solvent so that excess solids were present. The mixture was then agitated in a sealed vial at either ambient or an elevated temperature. After a given amount of time, the solids were isolated for analysis.
The formation and stability of solid forms of the sodium salt of Compound I was further evaluated via slurry experiments. The slurries were formed by combining Compound I sodium Pattern A and a solvent, and allowing the slurry to equilibrate at room temperature. If a free flowing slurry was not achieved, an additional amount of the respective solvent was added before the room temperature equilibration step. All slurries were isolated via centrifuge filtration after five days and twelve days of equilibration. The solids were analyzed by XRPD to check for pattern conversion (Table 13).

## O=C(O)c1cc(-c2ccc(OC3CC3)c(Cl)c2)ncn1 [Compound I diethylamine Material A, 6-(3-chloro-4-cyclopropoxyphenyl)pyrimidine-4-carboxylic acid]
[1]
  aqueous solubility (in words): desirable aqueous solubility
  solubility: ~30 mg/mL
[1]; listed as Diethylamine A
  solubility: >30 mg/mL
[2]
  hygroscopicity by DVS analysis (in words): hygroscopic
  DVS weight loss upon equilibration at about 5% RH: about 0.08%
  material recovered from the DVS analysis compared with starting material by XRPD: substantially the same as the starting material
  DVS weight loss: ~1.92%
[2]; from about 5 to about 95% RH
  DVS weight gain: ~2.12%
[2]; sorption cycle
  gain observed by DVS analysis: ~2 wt %
[3]
  Observation (deliquescence): no deliquescence

## O=C(O)c1cc(-c2ccc(OC3CC3)c(Cl)c2)ncn1 [Compound I sodium Pattern C, 6-(3-chloro-4-cyclopropoxyphenyl)pyrimidine-4-carboxylic acid]
[4]; about 60° C.
  chemical and physical form changes after storing at elevated temperature: No chemical and physical form changes were observed
[4]; after storage at 60 ° C. (time point not given)
  HPLC: >99.9 % AUC
[5]; acetone and/or isopropanol (trituration, single form or competitive slurry)
  form conversion in slurry / trituration: converted to Compound I sodium Form B
[5]; at the conditions evaluated
  relative stability of the form (in words): not stable
[5]; methanol
  time stable in slurry: about 10 days
[5]; solvent systems with high water activity
  form conversion in slurry / trituration: covert to Compound I sodium Form E
[2]
  hygroscopicity by DVS analysis (in words): slightly hygroscopic
  material recovered from the DVS analysis compared with starting material by XRPD: substantially the same as the starting material
[2]; at 60% RH
  DVS weight gain: about 1.9%
[2]; at 90% RH
  DVS weight gain: about 8.4%

## O=C(O)c1cc(-c2ccc(OC3CC3)c(Cl)c2)ncn1 [Compound I tromethamine Form A, 6-(3-chloro-4-cyclopropoxyphenyl)pyrimidine-4-carboxylic acid]
[1]
  aqueous solubility (in words): desirable aqueous solubility
  solubility: ~134 mg/mL
[1]; listed as Tromethamine A
  solubility: >134 mg/mL
[2]
  hygroscopicity by DVS analysis (in words): not hygroscopic
  DVS weight loss upon equilibration at about 5% RH: about 0.01%
  material recovered from the DVS analysis compared with starting material by XRPD: substantially the same as the starting material
  DVS weight loss: ~0.26%
[2]; from about 5 to about 95% RH
  DVS weight gain: ~0.25%
[3]
  Observation (deliquescence): no deliquescence

## O=C(O)c1cc(-c2ccc(OC3CC3)c(Cl)c2)ncn1 (racemic) [Compound I lysine Material A, 6-(3-chloro-4-cyclopropoxyphenyl)pyrimidine-4-carboxylic acid]
[1]; thermodynamic from solid, read-out: Solubility
  solubility: < 4 mg/mL
[1]; listed as Compound I lysine material A
  aqueous solubility (in words): poor low aqueous solubility
[3]
  Observation (deliquescence): no deliquescence

## O=C(O)c1cc(-c2ccc(OC3CC3)c(Cl)c2)ncn1 [Compound I ethanolamine Material A, 6-(3-chloro-4-cyclopropoxyphenyl)pyrimidine-4-carboxylic acid]
[1]
  aqueous solubility (in words): poor low aqueous solubility
[1]; listed as Ethanolamine A
  solubility: <4 mg/mL
[3]
  Observation (deliquescence): no deliquescence

## O=C(O)c1cc(-c2ccc(OC3CC3)c(Cl)c2)ncn1 (racemic) [Compound I arginine Material A, 6-(3-chloro-4-cyclopropoxyphenyl)pyrimidine-4-carboxylic acid]
[1]; listed as Compound I Arginine Material A
  aqueous solubility (in words): suitable aqueous solubility

## O=C(O)c1cc(-c2ccc(OC3CC3)c(Cl)c2)ncn1 [Compound I diethanolamine Form A, 6-(3-chloro-4-cyclopropoxyphenyl)pyrimidine-4-carboxylic acid]
[1]
  aqueous solubility (in words): desirable aqueous solubility
  solubility: above 260 mg/mL
[2]
  hygroscopicity by DVS analysis (in words): not hygroscopic
  DVS weight loss upon equilibration at about 5% RH: about 0.2%
  material recovered from the DVS analysis compared with starting material by XRPD: substantially the same as the starting material
  DVS weight loss: ~0.47%
[2]; from about 5 to about 95% RH
  DVS weight gain: ~0.48%
[3]
  Observation (deliquescence): no deliquescence

## O=C(O)c1cc(-c2ccc(OC3CC3)c(Cl)c2)ncn1 [Compound I meglumine Material A, 6-(3-chloro-4-cyclopropoxyphenyl)pyrimidine-4-carboxylic acid]
[1]
  aqueous solubility (in words): suitable aqueous solubility
